Measurements: US20240124408A1 (Sanofi, priority 2020, published 2024)
pEC50: −log10 of the molar value. Counter-ions that a name gives are not always drawn. Like-named read-outs stand apart in the source and are kept apart here.

How the values were obtained:
pig TRPM8 [1] = target: T1, pig TRPM8 (Sus scrofa, UniProt F1SM15); assay: In vitro pig TRPM8 automated patch-clamp assay (SyncroPatch 384PE, CHO cells); format: cell-based; conditions: CHO cells expressing pig TRPM8, 28° C.
T1 construct: expressed in transfected cells; host or cells: CHO (pcDNA5/FRT/TO vector; hygromycin B and blasticidin selection)
T1 sequence (F1SM15 1-1104): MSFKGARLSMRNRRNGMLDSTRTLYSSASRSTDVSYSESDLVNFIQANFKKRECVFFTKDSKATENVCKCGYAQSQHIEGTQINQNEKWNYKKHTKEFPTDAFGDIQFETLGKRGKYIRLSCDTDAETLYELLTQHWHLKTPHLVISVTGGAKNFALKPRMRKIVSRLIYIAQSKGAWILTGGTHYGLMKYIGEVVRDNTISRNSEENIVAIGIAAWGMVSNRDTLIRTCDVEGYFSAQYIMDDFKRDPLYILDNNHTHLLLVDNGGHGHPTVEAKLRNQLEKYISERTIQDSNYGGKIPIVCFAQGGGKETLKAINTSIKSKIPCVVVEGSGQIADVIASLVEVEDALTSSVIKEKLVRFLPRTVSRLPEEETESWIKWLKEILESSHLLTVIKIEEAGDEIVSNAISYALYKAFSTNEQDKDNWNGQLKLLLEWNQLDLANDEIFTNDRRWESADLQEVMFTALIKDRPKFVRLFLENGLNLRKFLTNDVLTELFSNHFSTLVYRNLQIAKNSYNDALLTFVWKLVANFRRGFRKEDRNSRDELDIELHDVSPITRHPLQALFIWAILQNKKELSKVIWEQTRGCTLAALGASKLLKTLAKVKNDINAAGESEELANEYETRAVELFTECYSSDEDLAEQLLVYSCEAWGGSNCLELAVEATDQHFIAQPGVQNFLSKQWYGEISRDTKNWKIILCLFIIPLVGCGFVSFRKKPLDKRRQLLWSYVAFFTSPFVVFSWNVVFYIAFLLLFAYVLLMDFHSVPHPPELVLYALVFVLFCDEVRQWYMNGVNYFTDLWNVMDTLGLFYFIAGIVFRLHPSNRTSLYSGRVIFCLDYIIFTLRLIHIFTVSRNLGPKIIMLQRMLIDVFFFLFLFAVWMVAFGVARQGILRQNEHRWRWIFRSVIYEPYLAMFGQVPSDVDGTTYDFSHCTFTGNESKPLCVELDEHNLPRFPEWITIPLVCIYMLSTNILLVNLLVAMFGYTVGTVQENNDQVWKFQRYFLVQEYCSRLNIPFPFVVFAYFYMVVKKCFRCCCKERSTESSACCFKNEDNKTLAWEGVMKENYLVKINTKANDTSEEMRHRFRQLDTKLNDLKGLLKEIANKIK
Summary of the method: (§1)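 Whole-cell automated patch clamp on engineered CHO lines at 28 °C, held at −60 mV, with −80 to +80 mV ramps every 5 s; one compound concentration per well. Peak current minus pre-addition baseline was normalised to no-compound control and Emax, and EC50 was fitted; 200 μM menthol wells served as control.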

[2] = system: Male castrated German Landrace pigs; assay: In vivo assay: enhancement of swallowing in anesthetized pigs (manometry with pressure probe in the mouth); conditions: Sus scrofa, anesthetized pig, dose per pig 10 mg, injected in 1 ml vehicle into the oral cavity
Protocol: For testing the efficacy of TRPM8 agonists for enhancing swallowing, experiment using the pig model can be conducted according to assay described below. The efficacy can be compared to a vehicle control.
Male castrated German Landrace pigs (weight range of 20 to 35 kg) were used. Anesthesia was induced by injecting 20 ml of a urethane solution (20 g/100 mL dissolved in saline) into an ear vein corresponding to a dose of around […]. Anesthesia was maintained by continuous infusion of 15-20 mL per hour of the urethane solution, which was infused into an epigastric vein, and additionally by infusion of Zoletil and Rompun (500 mg Zoletil is disssovled in 10 ml of Rompun 2%, then diluted 1:10 with saline and 3-5 mL per hour of this diluted solution. Bupivacain 0.5% JENAPHARM@ was injected for additional infiltration anesthesia. Anesthesia was monitored via pulsoximetry (ear) and regular reflex testing for pain. Body temperature was monitored and maintained by an infrared lamp.
Preparation of pigs: Swallowing responses were assessed by manometry with a pressure probe placed into the mouth of the pig. The pressure probe consisted of a plastic tube (diameter 3.3 mm) to which a small balloon was attached. The tube was advanced about 12-14 cm into the mouth related to the snout. The balloon was then inflated with air to yield a pressure of 20-30mbar (vehicle). Ideally a swallowing response with 1 ml of fluid raised this pressure by 20-50mbar which was then referred to as the swallowing pressure (the increment of this pre-set pressure in the inflated balloon after swallowing) to be further enhanced by an effective test drug.
The free end of the tube was connected to a differential pressure transducer MPX Type 399/2 (Hugo Sachs Elektronik-Harvard Apparatus) and a Hugo Sachs Plugsys-amplifier system. The biological signals were recorded by a Hugo Sachs Plugsys-amplifier system and continuously stored on a computer hard disk by an on line data acquisition and analysis system (Hem 4.2 Notocord Systems, Croissy-sur-Seine, France).
A second tube referred to as injection tube was placed dorsally to the manometer tube to enable the administration of the vehicle that induced the baseline swallowing activity, or of this same vehicle containing the test compound.
Induction and assessment of swallowing activity: 0.5h after anesthesia induction 1 ml of a fluid or the vehicle for the test drug was injected into the injection tube placed into the oral cavity. The number of swallows was counted and the highest-pressure increment was registered. Challenges with vehicle were repeated at intervals of 30 min until two consecutive vehicle challenges show an about equal swallowing response. The next challenge was the vehicle loaded with the test drug (otherwise same procedure). The efficacy of a compound to enhance swallowing as shown in Table 7 was expressed as the % increase in pressure and frequency of swallowing after administration of the compound compared to the pressure and frequency recorded for its vehicle administered just before.

human TRPM8 [3] = target: T2, human TRPM8 (Homo sapiens, UniProt Q7Z2W7); assay: In vitro human TRPM8 fluorescence calcium flux assay (recombinant CHO cells, Fluo4-AM, FDSS6000); format: cell-based; conditions: recombinant CHO cells expressing human TRPM8; menthol-related EC50, normalized to 100 μM menthol
T2 construct: expressed in transfected cells; host or cells: CHO (p658 mammalian expression vector)
T2 sequence (Q7Z2W7 whole entry): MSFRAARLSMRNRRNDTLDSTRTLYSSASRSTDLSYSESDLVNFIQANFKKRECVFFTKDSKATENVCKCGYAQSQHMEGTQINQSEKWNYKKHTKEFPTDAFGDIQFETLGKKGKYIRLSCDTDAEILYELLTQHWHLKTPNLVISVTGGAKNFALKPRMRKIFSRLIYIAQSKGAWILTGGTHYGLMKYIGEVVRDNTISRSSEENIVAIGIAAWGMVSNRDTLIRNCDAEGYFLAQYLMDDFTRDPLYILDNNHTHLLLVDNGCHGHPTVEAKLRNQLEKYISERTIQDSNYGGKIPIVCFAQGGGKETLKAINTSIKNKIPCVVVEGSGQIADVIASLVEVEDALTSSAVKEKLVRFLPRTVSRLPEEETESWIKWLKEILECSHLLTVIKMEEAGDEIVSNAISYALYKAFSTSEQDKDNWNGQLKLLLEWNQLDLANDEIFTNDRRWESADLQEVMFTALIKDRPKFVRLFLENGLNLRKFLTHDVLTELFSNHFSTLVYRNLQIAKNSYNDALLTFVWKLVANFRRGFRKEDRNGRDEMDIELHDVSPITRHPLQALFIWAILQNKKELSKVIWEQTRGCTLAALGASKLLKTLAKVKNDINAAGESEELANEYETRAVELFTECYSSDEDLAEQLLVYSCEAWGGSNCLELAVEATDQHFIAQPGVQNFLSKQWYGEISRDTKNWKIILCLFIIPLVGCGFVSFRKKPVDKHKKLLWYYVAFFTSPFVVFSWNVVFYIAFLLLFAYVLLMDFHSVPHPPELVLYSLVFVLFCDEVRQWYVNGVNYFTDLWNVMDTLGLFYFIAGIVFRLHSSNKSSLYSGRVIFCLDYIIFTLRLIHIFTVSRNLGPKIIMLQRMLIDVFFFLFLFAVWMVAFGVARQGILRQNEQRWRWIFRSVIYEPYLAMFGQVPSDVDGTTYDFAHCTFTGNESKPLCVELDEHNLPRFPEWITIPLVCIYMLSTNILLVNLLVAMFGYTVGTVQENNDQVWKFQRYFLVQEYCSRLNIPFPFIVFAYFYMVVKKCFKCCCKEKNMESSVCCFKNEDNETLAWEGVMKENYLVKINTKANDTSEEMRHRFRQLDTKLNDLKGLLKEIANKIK
Summary of the method: (§2)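 CHO cells stably expressing pig or human TRPM8, loaded with 2 μM Fluo4-AM in HBSS/20 mM HEPES/0.1% BSA/2.5 mM probenecid for 1 h at RT. Intracellular calcium read kinetically for 3 min after compound addition. EC50 from sixteen-point curves, normalized to 100 μM menthol maximal response.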

human TRPM8 [4] = target: T2, human TRPM8; assay: In vitro human TRPM8 automated patch-clamp assay (SyncroPatch 384PE, CHO cells); format: cell-based; conditions: CHO cells expressing human TRPM8, 28° C.
Summary of the method: as §1

pig TRPM8 [5] = target: T1, pig TRPM8; assay: In vitro pig TRPM8 fluorescence calcium flux assay (recombinant CHO cells, Fluo4-AM, FDSS6000); format: cell-based; conditions: recombinant CHO cells expressing pig TRPM8; menthol-related EC50, normalized to 100 μM menthol
Summary of the method: as §2

[6] = frequency of swallowing compared with vehicle administered just before, read-out: % increase frequence vs vehicle
[7] = swallowing pressure compared with vehicle administered just before, read-out: % increase pressure vs vehicle

Row | SMILES | pEC50 (pig TRPM8 [1]) | change in vivo at 10 mg [2, 6] [%] | change in vivo at 10 mg [2, 7] [%] | pEC50 (human TRPM8 [3]) | pEC50 (human TRPM8 [4]) | pEC50 (pig TRPM8 [5])
1 | CC(C)[C@@H]1CC[C@@H](C)C[C@@]1(O)C(=O)NCCc1ccccc1OC[C@@H](O)CO [Example 25, (1S,2S,5R)—N-(2-((S)-2,3-dihydroxypropoxy)phenethyl)-1-hydroxy-2-isopropyl-5-methylcyclohexane-1-carboxamide] | 5.47 | 173 | 168 | 7.84 | 5.67 | 7.48
2 | CC(C)[C@@H]1CC[C@@H](C)C[C@@]1(O)C(=O)NCCc1cccc(C(=O)OCCO)c1 [Example 21, 2-hydroxyethyl 3-(2-((1S,2S,5R)-1-hydroxy-2-isopropyl-5-methylcyclohexane-1-carboxamido)ethyl) benzoate] | 5.28 | 171 | 181 | 7.19 | 5.26 | 7.25
3 | CC(C)[C@@H]1CC[C@@H](C)C[C@@]1(O)C(=O)NCCc1cccc(O)c1 [Example 40, (1S,2S,5R)-1-hydroxy-N-(3-hydroxyphenethyl)-2-isopropyl-5-methylcyclohexane-1-carboxamide] | 5.76 | 62 | 393 | 8.60 | 5.84 | 8.85
4 | CC(C)[C@@H]1CC[C@@H](C)C[C@@]1(O)C(=O)NCCc1ccccc1 [Example 51, (1S,2S,5R)-1-hydroxy-2-isopropyl-5-methyl-N-phenethylcyclohexane-1-carboxamide] | 6.08 | 250 | 186 | 8.11 | 5.52 | 8.35
5 | COC(=O)c1ccc(CCNC(=O)[C@]2(O)C[C@H](C)CC[C@H]2C(C)C)cc1 [Example 108, methyl 4-(2-((1S,2S,5R)-1-hydroxy-2-isopropyl-5-methylcyclohexane-1-carboxamido)ethyl)benzoate] | < 5.00 | 114 | 169 | 6.67 |  | 7.14
6 | CC(C)[C@@H]1CC[C@@H](C)C[C@@]1(O)C(=O)NCCc1ccccc1OCCCO [Example 80, (1S,2S,5R)-1-hydroxy-N-(2-(3-hydroxypropoxy)phenethyl)-2-isopropyl-5-methylcyclohexane-1-carboxamide] | 5.40 | 91 | 86 | 7.40 | 5.74 | 7.09
7 | CC(C)[C@@H]1CC[C@@H](C)C[C@@]1(O)C(=O)NCCc1ccccc1OCC(N)=O [Example 81, (1S,2S,5R)—N-(2-(2-amino-2-oxoethoxy)phenethyl)-1-hydroxy-2-isopropyl-5-methyl cyclohexane-1-carboxamide] | 5.37 | 247 | 315 | 7.56 | 5.82 | 7.60
8 | CC(C)[C@@H]1CC[C@@H](C)C[C@@]1(O)C(=O)NCCc1cccc(C(N)=O)c1 [Example 49, 3-(2-((1S,2S,5R)-1-hydroxy-2-isopropyl-5-methylcyclohexane-1-carboxamido)ethyl) benzamide] | 5.85 | 300 | 133 | 7.17 | 5.71 | 7.62
9 | CC(C)[C@@H]1CC[C@@H](C)C[C@@]1(O)C(=O)NCCc1ccccc1CO [Example 14, (1S,2S,5R)-1-hydroxy-N-(2-(hydroxymethyl)phenethyl)-2-isopropyl-5-methylcyclohexane-1-carboxamide] | 5.48 | 62 | 73 | 7.99 | 5.57 | 8.17
10 | CC(C)OC(=O)CNC(=O)[C@]1(O)C[C@H](C)CC[C@H]1C(C)C [Example 54, isopropyl ((1S,2S,5R)-1-hydroxy-2-isopropyl-5-methylcyclohexane-1-carbonyl)glycinate] | 5.06 | 75 | 64 | 6.65 | 5.25 | 7.04
11 | CC(C)[C@@H]1CC[C@@H](C)C[C@@]1(O)C(=O)NC[C@@H](NC(=O)[C@H](C)N)c1ccccc1 [Example 63, (1S,2S,5R)—N—((S)-2-((S)-2-aminopropanamido)-2-phenylethyl)-1-hydroxy-2-isopropyl-5-methylcyclohexane-1-carboxamide] | 7.24 | 191 | 186 | 8.59 | 7.28 | 8.24
12 | CC(C)[C@@H]1CC[C@@H](C)C[C@@]1(O)C(=O)NCCc1ccccc1C(=O)OCCN [Example 13, 2-aminoethyl 2-(2-((1S,2S,5R)-1-hydroxy-2-isopropyl-5-methylcyclohexane-1-carboxamido)ethyl) benzoate hydrochloride] | 6.11 | 100 | 53 | 9.00 | 6.82 | 8.70
13 | CC(C)[C@@H]1CC[C@@H](C)C[C@@]1(O)C(=O)NCC(F)(F)c1ccccc1 [Example 4, (1S,2S,5R)—N-(2,2-difluoro-2-phenylethyl)-1-hydroxy-2-isopropyl-5-methylcyclohexane-1-carboxamide] | 6.33 | 417 | 221 | 8.55 | 6.27 | 8.92
14 | CC(C)[C@@H]1CC[C@@H](C)C[C@@]1(O)C(=O)NCC1(c2ccccc2)COC1 [Example 31, (1S,2S,5R)-1-hydroxy-2-isopropyl-5-methyl-N-((3-phenyloxetan-3-yl)methyl)cyclohexane-1-carboxamide] | 5.50 | 119 | 253 | 7.98 | 5.68 | 8.03
15 | CC(C)[C@@H]1CC[C@@H](C)C[C@@]1(O)C(=O)NCCc1ccccc1C(=O)OCCO [Example 22, 2-hydroxyethyl 2-(2-((1S,2S,5R)-1-hydroxy-2-isopropyl-5-methylcyclohexane-1-carboxamido)ethyl) benzoate] | 5.42 | 500 | 182 | 7.60 | 5.44 | 7.46
16 | CC(C)[C@@H]1CC[C@@H](C)C[C@@]1(O)C(=O)NC[C@@H](O)c1ccccc1 [Example 1, (1S,2S,5R)-1-hydroxy-N—((S)-2-hydroxy-2-phenylethyl)-2-isopropyl-5-methylcyclohexane-1-carboxamide] | 6.13 | 231 | 274 | 8.77 | 6.09 | 8.92
17 | CC(C)[C@@H]1CC[C@@H](C)C[C@@]1(O)C(=O)NC[C@@H](N)c1ccccc1 [Example 50, (1S,2S,5R)—N-((2S)-amino-2-phenylethyl)-1-hydroxy-2-isopropyl-5-methylcyclohexane-1-carboxamide] | 7.15 | 100 | 63 | 9.40 | 6.85 | 9.40
